How the values were obtained:
[1] = target: T1, porcine pancreatic lipase (Sus scrofa, UniProt P00591); test: Lipase enzyme activity, NaOH titration method (lipid micelles); assay type: biochemical; conditions: NaOH titration assay
T1 sequence (P00591 1-450): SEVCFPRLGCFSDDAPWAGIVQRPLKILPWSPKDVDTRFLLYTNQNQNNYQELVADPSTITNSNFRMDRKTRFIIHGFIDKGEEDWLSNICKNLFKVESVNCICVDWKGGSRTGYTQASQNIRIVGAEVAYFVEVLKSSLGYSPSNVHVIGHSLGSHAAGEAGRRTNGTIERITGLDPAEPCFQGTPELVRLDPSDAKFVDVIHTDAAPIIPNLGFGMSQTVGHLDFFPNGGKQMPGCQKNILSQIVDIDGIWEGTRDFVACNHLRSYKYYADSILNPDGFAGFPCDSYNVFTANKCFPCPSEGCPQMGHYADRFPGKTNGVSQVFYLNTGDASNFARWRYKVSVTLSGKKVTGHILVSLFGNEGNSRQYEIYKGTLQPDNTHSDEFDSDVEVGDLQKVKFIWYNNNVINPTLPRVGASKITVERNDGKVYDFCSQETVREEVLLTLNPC
Procedure: Measurement of Lipase Enzyme Activity Using a NaOH Titration Method
The inhibitory activity of the selected compound to pancreatic lipase was measured in the assay described in Pasquier et al; 1996, Vol 7, Nutritional Biochemistry, 293-302.
Log dose/response curves were constructed using a range of inhibitor concentrations.
Selected thieno-oxazinone compounds were tested in the NaOH titration assay. In this assay, the activity of porcine pancreatic lipase in a system containing lipid micelles is recorded. These conditions are therefore similar to those encountered in the gastrointestinal tract.

human pancreatic lipase = target: T2, human pancreatic lipase (Homo sapiens, UniProt P16233); test: Lipase activity, quinine diimine dye colorimetric assay (Sigma Lipase-PS); assay type: biochemical
T2 sequence (P16233 17-465): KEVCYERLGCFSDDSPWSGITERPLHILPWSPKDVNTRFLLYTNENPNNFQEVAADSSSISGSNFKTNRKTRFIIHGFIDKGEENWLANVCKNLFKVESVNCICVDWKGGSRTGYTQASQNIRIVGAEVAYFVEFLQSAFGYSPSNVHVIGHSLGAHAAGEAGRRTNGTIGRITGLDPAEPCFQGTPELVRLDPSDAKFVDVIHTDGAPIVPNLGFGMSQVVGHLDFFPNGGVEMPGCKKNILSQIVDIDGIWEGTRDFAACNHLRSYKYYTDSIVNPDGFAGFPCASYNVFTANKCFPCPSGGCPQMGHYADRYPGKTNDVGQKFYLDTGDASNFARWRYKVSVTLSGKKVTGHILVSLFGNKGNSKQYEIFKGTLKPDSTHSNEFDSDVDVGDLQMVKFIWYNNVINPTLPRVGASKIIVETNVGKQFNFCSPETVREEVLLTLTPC
Procedure: Measurement of Lipase Activity Using a Quinine Diimine Dye Calorimetric Assay
The inhibitory activity of the selected compounds to pancreatic lipase was measured in the following assay available from Sigma Ltd (Lipase-PS™, catalog number 805-A):
The glycerol released from the action of pancreatic and monoglyceride lipase was oxidised to release H2O2. The peroxidase reaction step then produces a quinine dye which is pink in colour and absorbs light at a wavelength of 550 nm.
Individual test compounds were dissolved in DMSO (dimethyl sulphoxide) at 10 mM. DMSO was used to avoid any problems with compounds being water-insoluble.
For individual compounds, the IC50 (concentration at which lipase activity is inhibited to one half of the maximum) was calculated by measuring the inhibitory activity from log-dose response curves using a range of inhibitor concentrations.
A range of standard compounds were assayed in the quinine dye calorimetric assay which provides a rapid method to measure lipase inhibitory activity.

Row | Compound | IC50 [1] [nM] | IC50 (human pancreatic lipase) [nM]
1 | CCCCCCCCCCCCc1cc2c(=O)oc(Nc3ccc(Oc4ccccc4)cc3)nc2s1 [Compound 49, 6-Dodecyl-2-(4-phenoxy)phenylamino-4H-thieno[2,3-d][1,3]oxazin-4-one] | ≤ 1000 | < 100
2 | O=c1oc(Nc2ccc(Oc3ccc(C(F)(F)F)cc3)cc2)nc2ccsc12 [Compound 38, 2-(4-(4-Trifluoromethyl-phenoxy)phenylamino)-4H-thieno[3,2-d][1,3]oxazin-4-one] |  | < 100
3 | CCCc1cc2c(=O)oc(Nc3ccc(Oc4ccccc4)cc3)nc2s1 [Compound 44, 6-Propyl-2-(4-phenoxy)phenylamino-4H-thieno[2,3-d][1,3]oxazin-4-one] | ≤ 1000 | < 100
4 | CCCCCCCCCCCCNc1nc2sccc2c(=O)o1 [Compound 20, 2-Dodecylamino-4H-thieno[2,3-d][1,3]oxazin-4-one] |  | < 100
5 | Cc1cc2c(=O)oc(Nc3ccccc3)nc2s1 [Compound 46, 6-Methyl-2-phenylamino-4H-thieno[2,3-d][1,3]oxazin-4-one] | ≤ 1000 | < 100
6 | CCCCCCCCCCCCNc1nc2ccsc2c(=O)o1 [Compound 41, 2-Dodecylamino-4H-thieno[3,2-d][1,3]oxazin-4-one] |  | < 100
7 | O=c1oc(Nc2ccccc2)nc2sccc12 [Compound 1, 2-Phenylamino-4H-thieno[2,3-d][1,3]oxazin-4-one] | ≤ 1000 | < 100
8 | Cc1cc2nc(Nc3ccc(Oc4ccccc4)cc3)oc(=O)c2s1 [Compound 43, 5-Methyl-2-(4-phenoxy)phenylamino-4H-thieno[3,2-d][1,3]oxazin-4-one] | ≤ 1000 | < 100
9 | O=c1oc(Nc2ccc(Oc3ccc(C(F)(F)F)cc3)cc2)nc2sccc12 [Compound 14, 2-(4-(4-Trifluoromethyl-phenoxy)phenylamino)-4H-thieno[2,3-d][1,3]oxazin-4-one] | ≤ 1000 | < 100
10 | CCCCNc1nc2sc(C)cc2c(=O)o1 [Compound 47, 2-Butylamino-6-methyl-4H-thieno[2,3-d][1,3]oxazin-4-one] | ≤ 1000 | < 100
11 | Cc1cc2c(=O)oc(Nc3ccc(Oc4ccccc4)cc3)nc2s1 [Compound 9, 6-Methyl-2-(4-phenoxy)phenylamino-4H-thieno[2,3-d][1,3]oxazin-4-one] | ≤ 1000 | < 100
12 | O=C(Nc1ccccc1)c1ccc(Nc2nc3sccc3c(=O)o2)cc1 [Compound 24, 2-(4-Phenylcarbamoyl)phenylamino-4H-thieno[2,3-d][1,3]oxazin-4-one] |  | < 100
13 | O=c1oc(Oc2ccc(Oc3cccc(C(F)(F)F)c3)cc2)nc2ccsc12 [Compound 15, 2-(4-(3-Trifluoromethyl-phenoxy)phenoxy)-4H-thieno[3,2-d][1,3]oxazin-4-one] | ≤ 1000 | < 100
14 | O=c1oc(Nc2ccc(Oc3ccccc3)cc2)nc2ccsc12 [Compound 10, 2-(4-Phenoxy)phenylamino-4H-thieno[3,2-d][1,3]oxazin-4-one] | ≤ 1000 | < 100
15 | CCCCCCCCCCCCN(C)c1nc2sc(C)cc2c(=O)o1 [Compound 19, 2-N-Dodecyl-N-methylamino-6-methyl-4H-thieno[2,3-d][1,3]oxazin-4-one] |  | < 100
16 | O=c1oc(Nc2ccc(Oc3cccc(C(F)(F)F)c3)cc2)nc2sccc12 [Compound 7, 2-(4-(3-Trifluoromethyl-phenoxy)phenylamino)-4H-thieno[2,3-d][1,3]oxazin-4-one] | ≤ 1000 | < 100
17 | CC(C)(C)c1cc2nc(Nc3ccccc3)oc(=O)c2s1 [Compound 8] | ≤ 1000 | < 100
18 | COC(=O)CCCCCNc1nc2sc(C)cc2c(=O)o1 [Compound 35, 2-(5-Methoxycarbonylpentyl)amino-6-methyl-4H-thieno[2,3-d][1,3]oxazin-4-one] |  | < 100
19 | O=c1oc(Nc2ccc(Cc3ccccc3)cc2)nc2sccc12 [Compound 11, 2-(4-Phenylmethyl)phenylamino-4H-thieno[2,3-d][1,3]oxazin-4-one] | ≤ 1000 | < 100

Row | Compound | IC50 [1] [nM] | IC50 (human pancreatic lipase) [nM]
20 | O=c1oc(Nc2ccc(Oc3ccc(Cl)cc3)cc2)nc2sccc12 [Compound 25, 2-(4-(4-Chlorophenoxy)-phenylamino)-4H-thieno[2,3-d][1,3]oxazin-4-one] |  | < 100
21 | CCCCCCCCCCCCSc1nc2sc(C)cc2c(=O)o1 [Compound 21, 2-Dodecylthio-6-methyl-4H-thieno[2,3-d][1,3]oxazin-4-one] |  | < 100
22 | O=c1oc(Nc2ccc(Oc3ccccc3)cc2)nc2sc(Cc3ccccc3)cc12 [Compound 50, 6-Phenylmethyl-2-(4-phenoxy)phenylamino-4H-thieno[2,3-d][1,3]oxazin-4-one] | ≤ 1000 | < 100
23 | Cc1cc2c(=O)oc(Nc3ccc(C#N)cc3)nc2s1 [Compound 29, 2-(4-Cyanophenyl)amino-6-methyl-4H-thieno[2,3-d][1,3]oxazin-4-one] |  | < 100
24 | O=c1oc(Nc2ccccc2)nc2cc(-c3ccccc3)sc12 [Compound 6] | ≤ 1000 | < 100
25 | O=c1oc(Nc2ccc(Oc3ccccc3)cc2)nc2sc(Cl)cc12 [Compound 48, 6-Chloro-2-(4-phenoxy)phenylamino-4H-thieno[2,3-d][1,3]oxazin-4-one] | ≤ 1000 | < 100
26 | N#Cc1ccc(Nc2nc3sccc3c(=O)o2)cc1 [Compound 27, 2-(4-Cyanophenyl)amino-4H-thieno[2,3-d][1,3]oxazin-4-one] |  | < 100
27 | Cc1ccc(Oc2ccc(Nc3nc4sccc4c(=O)o3)cc2)cc1 [Compound 26, 2-(4-(4-Methylphenoxy)-phenylamino)-4H-thieno[2,3-d][1,3]oxazin-4-one] |  | < 100
28 | CCCc1cc2c(=O)oc(Nc3ccc(C#N)cc3)nc2s1 [Compound 28, 2-(4-Cyanophenyl)amino-6-propyl-4H-thieno[2,3-d][1,3]oxazin-4-one] |  | < 100
29 | CCCCCCCCCCCCNc1nc2sc(C)cc2c(=O)o1 [Compound 18, 2-Dodecylamino-6-methyl-4H-thieno[2,3-d][1,3]oxazin-4-one] |  | < 100
30 | O=c1oc(Nc2ccc(Sc3ccccc3)cc2)nc2sccc12 [Compound 16, 2-(4-Phenylthio)phenylamino-4H-thieno[2,3-d][1,3]oxazin-4-one] | ≤ 1000 | < 100
31 | O=c1oc(Nc2ccc(Oc3ccccc3)cc2)nc2sccc12 [Compound 5, 2-(4-Phenoxy)phenylamino-4H-thieno[2,3-d][1,3]oxazin-4-one] | ≤ 1000 | < 100
32 | Cc1cc2c(=O)oc(NCCCCc3ccccc3)nc2s1 [Compound 32, 6-Methyl-2-(4-phenylbutyl)amino-4H-thieno[2,3-d][1,3]oxazin-4-one] |  | < 100
33 | O=C(c1ccccc1)c1ccc(Nc2nc3sccc3c(=O)o2)cc1 [Compound 12, 2-(4-Benzoyl)phenylamino-4H-thieno[2,3-d][1,3]oxazin-4-one] | ≤ 1000 | < 100
34 | O=c1oc(Nc2ccc(S(=O)(=O)c3ccccc3)cc2)nc2sccc12 [Compound 23, 2-(4-Phenylsulfonyl)phenylamino-4H-thieno[2,3-d][1,3]oxazin-4-one] |  | < 100
35 | N#Cc1ccc(Nc2nc3sc(Cc4ccccc4)cc3c(=O)o2)cc1 [Compound 30, 6-Phenylmethyl-2-(4-cyanophenyl)amino-4H-thieno[2,3-d][1,3]oxazin-4-one] |  | < 100
36 | N#Cc1ccc(Nc2nc3ccsc3c(=O)o2)cc1 [Compound 40, 2-(4-Cyanophenyl)amino-4H-thieno[3,2-d][1,3]oxazin-4-one] |  | < 100
37 | CCCCCCCCCCCCc1cc2c(=O)oc(Nc3ccc(C#N)cc3)nc2s1 [Compound 31, 2-(4-Cyanophenyl)amino-6-dodecyl-4H-thieno[2,3-d][1,3]oxazin-4-one] |  | < 100
38 | Cc1cc2c(=O)oc(NCCCl)nc2s1 [Compound 33, 2-(2-Chloroethyl)amino-6-methyl-4H-thieno[2,3-d][1,3]oxazin-4-one] |  | < 100
